This note sets out measurements from ChEMBL document CHEMBL5247586, “Discovery of fusidic acid derivatives as novel STING inhibitors for treatment of sepsis” (Eur J Med Chem, 2022).

The test system of data set [1] is Mus musculus. As to the kind of experiment: Protective activity against LPS induced sepsis in BALB/c mouse model of acute liver injury assessed as improvement in blurred boundaries in liver tissue at 1.25 to 5 mg/kg, IG administered once a day for 3 days followed by LPS stimulation for 12 hrs starting from 2 hrs post last dose by hematoxylin and eosin staining based analysis. It is filed as functional, organism-based. The settings on record: dose 1.25-5 mg/kg, time 86.0 hrs.

The subject of data set [2] is Mus musculus. As to the kind of experiment: Protective activity against LPS induced sepsis in BALB/c mouse model of acute liver injury assessed as reduction in necrotic hepatocytes at 1.25 to 5 mg/kg, IG administered once a day for 3 days followed by LPS stimulation for 12 hrs starting from 2 hrs post last dose by hematoxylin and eosin staining based analysis. It is filed as functional, organism-based. The settings on record: dose 1.25-5 mg/kg, time 86.0 hrs.

Data set [3] concerns RAW264.7. As to the kind of experiment: Anti inflammatory activity in LPS-induced mouse RAW264.7 cells assessed as inhibition of NO production preincubated with compound for 2 hrs followed by LPS stimulation and measured after 24 hrs by griess reagent based assay. Type of data set: functional, cell-based.
The target of data set [4] is T1, Stimulator of interferon genes protein (Mus musculus) (UniProt Q3TBT3).
T1 sequence (whole entry): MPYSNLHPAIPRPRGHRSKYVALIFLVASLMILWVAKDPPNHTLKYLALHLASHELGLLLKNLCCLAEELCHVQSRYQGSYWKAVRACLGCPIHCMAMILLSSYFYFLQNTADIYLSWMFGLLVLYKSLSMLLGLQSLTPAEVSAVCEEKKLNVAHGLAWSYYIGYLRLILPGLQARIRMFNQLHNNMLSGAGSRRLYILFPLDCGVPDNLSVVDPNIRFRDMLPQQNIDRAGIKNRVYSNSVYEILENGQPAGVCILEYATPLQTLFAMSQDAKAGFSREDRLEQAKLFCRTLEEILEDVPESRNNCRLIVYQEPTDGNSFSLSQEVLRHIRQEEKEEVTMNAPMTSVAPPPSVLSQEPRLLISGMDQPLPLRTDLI
As to the kind of experiment: In vivo inhibition of STING in BALB/c mouse model of LPS induced sepsis assessed as inhibition of upregulation of phosphorylated TBK1 […] expression at 1.25 to 5 mg/kg, IG administered once a day for 3 days followed by LPS stimulation for 12 hrs starting from 2 hrs post last dose by Western blot analysis. It is filed as functional, organism-based. The settings on record: dose 1.25-5 mg/kg, time 86.0 hrs.

Data set [5] in a line: AUC(0 to t) in Sprague-Dawley rat administered intragastrically. Type of data set: ADME. Further details: route ig. Particulars: in vivo, po.
Data set [6] deals with Mus musculus. As to the kind of experiment: Anti-sepsis activity against BALB/c mouse model of LPS induced sepsis assessed as reduction in STING mRNA expression in liver at 1.25 to 5 mg/kg, IG administered once a day for 3 days followed by LPS stimulation for 12 hrs starting from 2 hrs post last dose by qRT-PCR analysis. Type of data set: functional, organism-based. The settings on record: dose 1.25-5 mg/kg, time 86.0 hrs. Background: In qPCR the cycle at which signal appears reflects the starting amount.

The subject of data set [7] is RAW264.7. In words: Anti inflammatory activity in LPS-induced mouse RAW264.7 cells assessed as suppression of IFN- beta levels at 0.5 to 2 uM preincubated with compound for 2 hrs followed by LPS stimulation for 6 hrs by ELISA method. Type of data set: functional, cell-based. Particulars: dose 0.5-2 µM, time 8.0 hrs. (In general: In an ELISA, binding on a coated surface is turned into a signal by an enzyme label.)

The target in data set [8] is T2, Serine/threonine-protein kinase TBK1 (Mus musculus) (UniProt Q9WUN2).
T2 sequence (whole entry): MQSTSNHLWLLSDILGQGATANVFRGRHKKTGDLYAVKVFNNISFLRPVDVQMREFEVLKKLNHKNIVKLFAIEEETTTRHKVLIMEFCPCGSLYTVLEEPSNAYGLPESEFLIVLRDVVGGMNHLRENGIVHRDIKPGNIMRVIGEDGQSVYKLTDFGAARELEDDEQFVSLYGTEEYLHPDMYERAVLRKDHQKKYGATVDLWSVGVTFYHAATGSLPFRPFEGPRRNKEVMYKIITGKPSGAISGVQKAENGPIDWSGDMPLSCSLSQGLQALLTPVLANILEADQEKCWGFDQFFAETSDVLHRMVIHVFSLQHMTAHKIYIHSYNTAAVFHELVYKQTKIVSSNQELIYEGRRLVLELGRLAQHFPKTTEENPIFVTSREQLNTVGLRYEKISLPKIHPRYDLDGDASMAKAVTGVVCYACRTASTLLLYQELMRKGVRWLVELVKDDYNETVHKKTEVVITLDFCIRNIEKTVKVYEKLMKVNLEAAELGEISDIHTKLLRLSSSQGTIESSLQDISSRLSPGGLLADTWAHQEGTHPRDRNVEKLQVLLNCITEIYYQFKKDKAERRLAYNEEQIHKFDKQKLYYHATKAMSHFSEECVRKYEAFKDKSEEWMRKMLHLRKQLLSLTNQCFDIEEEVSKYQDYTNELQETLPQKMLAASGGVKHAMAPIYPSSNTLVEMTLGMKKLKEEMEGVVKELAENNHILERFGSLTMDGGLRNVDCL
As to the kind of experiment: Inhibition of TBK1 phosphorylation in LPS-induced mouse RAW264.7 cells preincubated with compound for 2 hrs followed by LPS stimulation and measured after 6 hrs by Western blot analysis. Type of data set: cell-based. Particulars: dose 0.5-2 µM, time 8.0 hrs.

Data set [9] addresses T1, Stimulator of interferon genes protein (Mus musculus). In words: Binding affinity to STING in mouse RAW264.7 cells assessed as thermal stabilization at 40 to 61 degree C at 20 uM incubated for 8 hrs by cellular thermal shift assay. Type of data set: cell-based.
Data set [10] shares this target. In words: In vivo inhibition of STING in BALB/c mouse model of LPS induced sepsis assessed as inhibition of upregulation of phosphorylated p65 protein expression at 1.25 to 5 mg/kg, IG administered once a day for 3 days followed by LPS stimulation for 12 hrs starting from 2 hrs post last dose by Western blot analysis. Type of data set: functional, organism-based. Particulars: dose 1.25-5 mg/kg, time 86.0 hrs.

The subject of data set [11] is RAW264.7. In words: Anti inflammatory activity in LPS-induced mouse RAW264.7 cells assessed as suppression of IL-6 levels at 0.5 to 2 uM preincubated with compound for 2 hrs followed by LPS stimulation for 6 hrs by ELISA method. Type of data set: functional, cell-based. Particulars: dose 0.5-2 µM, time 8.0 hrs.
The subject of data set [12] is Mus musculus. In words: Protective activity against LPS induced sepsis in BALB/c mouse model of acute liver injury assessed as reduction in inflammatory cell infiltration at 1.25 to 5 mg/kg, IG administered once a day for 3 days followed by LPS stimulation for 12 hrs starting from 2 hrs post last dose by hematoxylin and eosin staining based analysis. It is filed as functional, organism-based. Particulars: dose 1.25-5 mg/kg, time 86.0 hrs.

Data set [13] has as its system RAW264.7. As to the kind of experiment: Inhibition of STING protein expression in LPS-induced mouse RAW264.7 cells preincubated with compound for 2 hrs followed by LPS stimulation and measured after 6 hrs by Western blot analysis. Type of data set: functional, cell-based. The settings on record: dose 0.5-2 µM, time 8.0 hrs. A general note: A western blot detects proteins with antibodies after separation by electrophoresis.

The target in data set [14] is T1, Stimulator of interferon genes protein (Mus musculus). In words: In vivo inhibition of STING in BALB/c mouse model of LPS induced sepsis assessed as inhibition of upregulation of phosphorylated IRF3 protein expression at 1.25 to 5 mg/kg, IG administered once a day for 3 days followed by LPS stimulation for 12 hrs starting from 2 hrs post last dose by Western blot analysis. It is filed as functional, organism-based. Particulars: dose 1.25-5 mg/kg, time 86.0 hrs.

Data set [15] has the same target. In words: Binding affinity to STING in mouse RAW264.7 cells assessed as thermal stabilization at 46 degree C measured for 8 hrs by cellular thermal shift assay. The settings on record: dose 0-20 µM. It is filed as cell-based.
For data set [16], the system named is RAW264.7. As to the kind of experiment: Anti inflammatory activity in LPS-induced mouse RAW264.7 cells assessed as inhibition of NO production at 2.5 uM preincubated with compound for 2 hrs followed by LPS stimulation and measured after 24 hrs by griess reagent based assay relative to control. Type of data set: functional. Particulars: time 26 hrs.
The test system of data set [17] is RAW264.7. As to the kind of experiment: Anti inflammatory activity in LPS-induced mouse RAW264.7 cells assessed as suppression of TNF-alpha levels at 0.5 to 2 uM preincubated with compound for 2 hrs followed by LPS stimulation for 6 hrs by ELISA method. Type of data set: functional, cell-based. The settings on record: dose 0.5-2 µM, time 8.0 hrs.

Calls of active or inactive are those of the source. No cut-off for these calls is given here.

One may read the IC50 as the point on the concentration scale where inhibition reaches its midpoint. In general, inhibition refers to the relative decrease from the control value, in per cent. The AUC(0-t) is exposure summed from dosing to a finite time, without extrapolation to infinity. A lower AUC(0-t) goes with less exposure. On to `C=CCONC(=O)CCSSCCC(=O)O[C@@H]1CC[C@@]2(C)[C@@H](CC[C@@]3(C)[C@H]2[C@H](O)C[C@H]2/C(=C(\CCC=C(C)C)C(=O)OCc4ccccc4)[C@@H](OC(C)=O)C[C@@]23C)[C@@H]1C`, for which the outcome (in the data set with Mus musculus [1]; in the data set with Mus musculus [2]; with Mus musculus [6]; in the data set on RAW264.7 [7]; in data set [9]; in the data set on RAW264.7 [11]) was Active. The result in the data set on Mus musculus [12] and in the data set with RAW264.7 [17] was Active. Also, the IC50 in the data set on RAW264.7 [3] came out at 1150 nM. The inhibition entry in data set [4], in data set [10] and in data set [14] was “Active” in each case. For the same compound, the AUC(0-t) in data set [5] stood at 81.1 ng·h/mL. Further, the inhibition result (in data set [8]; in the data set with RAW264.7 [13]) was “Dose-Dependent Effect” throughout. In addition, in data set [15], the Activity entry was “Dose-Dependent Effect”. For the same compound, the inhibition at 2.5 µM in the data set with RAW264.7 [16] came to 69.3%.
